According to patent US9056923B2, “Mimetic peptides derived from collagen type IV and their use for treating angiogenesis- and lymphagiogenesis-dependent diseases” (THE JOHNS HOPKINS UNIVERSITY, priority 2010, dated 2015):
Square brackets hold non-standard residues; d marks the D form. Ends that are not written are not given here. Peptide text beside a SMILES is read from it. AllylGly = C=CC[C@H](N)C(=O)O; Nle = CCCC[C@H](N)C(=O)O; Abu = CC[C@H](N)C(=O)O

Legend:
Assay type in all cases: cell-based, human
HUVEC [1] = assay: HUVEC migration assay (RT-CIM); details: for Migration Inhibition (50 uM): 50 uM peptide; for Activity in Migration: Yes/No summary, active = inhibitory potential greater than 30%; for Migration Inhibition (5 uM): 5 uM peptide
Experimental: The inhibitory potential of the peptides was measured using a real time migration assay system based on electrical impedance (RT-CIM, ACEA Biosciences, CA). CIM 16 well plates (Roche, 05665817001) are composed of a top and bottom chamber separated by a microporous (8 μm) polycarbonate membrane. The membrane was coated with fibronectin (20 μg/mL), and 45,000 cells/well in serum free media with or without peptides were added to the top compartment. Media with chemoattractant (i.e., fully supplemented EBM-2) was added to the bottom compartment of the chamber and the plate was incubated at 37° C. for 20 hours. The sensors integrated on the bottom side of the membrane monitor and continuously record changes in impedance as the cells move through the membrane. The RT-CIM technology allows for easy quantification of cell migration by monitoring the cell index derived from the measured impedances. Assays were performed in at least two independent replicates and each replicate was performed using two experimental duplicates.

HUVEC [2] = assay: HUVEC tube formation assay on Matrigel; details: for Tube formation Inhibition (100 uM): 100 uM peptide; for Activity in Tube formation: Yes/No summary; for inhibition of tube formation: concentration not given
Experimental: The compounds also were tested for their ability to inhibit tube formation, a process critical in angiogenesis. Endothelial cells spontaneously form a network of tubes when plated on extracts of extracellular matrix. This in vitro assay combines aspects of adhesion and migration and it is routinely used in angiogenesis research (Oliveira-Ferrer et al., 2008). The ability to inhibit tube formation is a comprehensive assessment of the anti-angiogenic potential. The protocol was described by Arnaoutova et al. (2009) and it consists of plating HUVEC on top of basement membrane extract and after incubation at 37° C. the cells naturally rearrange themselves in a network of tubes. Thus, 50 μL/well of Matrigel (BD Biosciences, San Jose, Calif.) was plated in a cold 96 well plate and incubated at 37° C. for 30 min for polymerization. 15,000 cells/well were added to the top of the gel and incubated in complete media in the presence or absence of peptide for 19 hours. Images were captured using the CCD Sensicam mounted on a Nikon microscope (Eclipse T-100). Assays were performed in at least two independent replicates and each replicate was performed using three experimental replicates and one image of a randomly chosen field was acquired per well.

HUVEC [3] = details: for Activity in Proliferation / Proliferation Inhibition (IC50 in uM) / inhibition of proliferation: HUVEC; for Activity in Proliferation: Yes/No summary; for Proliferation Inhibition (IC50 in uM): summary tables 2-4, 6, 7
Experimental: Several assays were used to test the peptides discussed in the Examples herein. A colorimetric based proliferation assay using WST-1 (Roche, 11644807001) proliferation reagent was carried out using HUVEC cells. 2000 cells/well were plated in 96-well plates and allowed to adhere overnight. On the following day, the media was exchanged with fully supplemented media containing peptides or equivalent DMSO vehicle for the controls. Three days later the media containing the peptides was replaced with serum-free EBM-2 media containing WST-1 reagent and the plates were incubated for four hours as per the manufacturer's recommendations. Changes in color, due to the formazan dye resulted from the cleavage of the tetrazolium salt WST-1 by the mitochondrial succinate-tetrazolium reductase, were read on a Victor V fluorescence plate reader (Perkin Elmer, MA) by measuring the absorbance at 450 nm Dose response curves of percent live cells (in comparison to untreated cells but incubated in complete media with 0.2% DMSO) were created. Assays were performed in at least two independent replicates and each replicate was performed using three experimental triplicates.

HUVEC [4] = details: HUVEC; for Adhesion Inhibition (100 uM): 100 uM peptide; for Activity in Adhesion: Yes/No summary, active = inhibitory potential greater than 30%
Experimental: Similar to the migration assays, the inhibition activity of the peptide in cellular adhesion was assessed using the RT-CIM technology. In this case, 25,000 cells/well were plated in 16 wells E-plates (Roche, Basel Switzerland) in the presence or absence of the peptide. The adhesion was monitored over time (3 hours) by measuring changes in the electrical impedance, which is a direct measure of the cells adhering on the electrodes. […] Assays were performed in at least two independent replicates and each replicate was performed using two experimental duplicates.

Row | Molecule | Migration Inhibition (50 uM) (HUVEC [1]) | Activity in Migration (HUVEC [1]) | Tube formation Inhibition (100 uM) (HUVEC [2]) | Activity in Tube formation (HUVEC [2]) | inhibition of tube formation (FIG. 20) (HUVEC [2]; high dose, 100 nM) | IC50 (HUVEC [3]) | Activity in Proliferation (HUVEC [3]) | Adhesion Inhibition (100 uM) (HUVEC [4]) | Activity in Adhesion (HUVEC [4]) | inhibition of migration (HUVEC [1]; concentration not given) | Proliferation Inhibition (IC50 in uM) (HUVEC [3]) | inhibition of adhesion (HUVEC [4]; concentration not given) | Migration Inhibition (5 uM) (HUVEC [1]) | inhibition of proliferation (HUVEC [3]) | inhibition of tube formation (HUVEC [2]) | migration inhibition (HUVEC [1]; concentration not given) | adhesion inhibition (FIG. 16) (HUVEC [4]; concentration not given)
1 | CC[C@H](NC(=O)[C@H](Cc1ccccc1)NC(=O)[C@H](CCSC)NC(=O)[C@@H](N)Cc1ccccc1)C(=O)N[C@@H](CC(N)=O)C(=O)N[C@H](C(=O)N[C@@H](CC(N)=O)C(=O)N[C@@H](CC(N)=O)C(=O)N[C@H](C(=O)N[C@@H](CC)C(=O)N[C@@H](CC(N)=O)C(=O)N[C@@H](Cc1ccccc1)C(=O)O)C(C)C)[C@@H](C)CC [SP2010, FMFAbuNINNVAbuNF] (H-FMF[Abu]NINNV[Abu]NF-OH; N-terminus and C-terminus assumed) | 13% | No | complete inhibition of tube formation | Yes | displayed activity in inhibiting tube formation | 155 µM | No | 82.69% | Yes | – | – | – | – | – | – | – | –
2 | CCCC[C@H](NC(=O)[C@H](Cc1ccccc1)NC(=O)[C@@H]1CCCN1C(=O)[C@H](CCCC)NC(=O)[C@@H](NC(=O)[C@H](CO)NC(=O)[C@H](Cc1ccccc1)NC(=O)[C@H](CCCNC(=N)N)NC(=O)[C@H](CCCNC(=N)N)NC(=O)[C@@H](N)CC(C)C)[C@@H](C)O)C(=O)N[C@@H](Cc1ccccc1)C(=O)O [SP2014, LRRFSTNlePFNleF-OH] (H-LRRFST[Nle]PF[Nle]F-OH; N-terminus assumed) | Inactive | No | Inactive | No | – | > 100 µM | No | 2.9% | No | absence of activity | Inactive | absence of activity | – | – | – | – | –
3 | C=CC[C@H](NC(=O)[C@H](Cc1ccccc1)NC(=O)[C@H](CCSC)NC(=O)[C@H](Cc1ccccc1)NC(=O)[C@@H]1CCCN1C(=O)[C@H](CCSC)NC(=O)[C@@H](NC(=O)[C@H](CO)NC(=O)[C@H](Cc1ccccc1)NC(=O)[C@H](CCCNC(=N)N)NC(=O)[C@H](CCCNC(=N)N)NC(=O)[C@@H](N)CC(C)C)[C@@H](C)O)C(=O)N[C@@H](CC(N)=O)C(=O)N[C@H](C(=O)N[C@@H](CC(N)=O)C(=O)N[C@@H](CC(N)=O)C(=O)N[C@H](C(=O)N[C@@H](CC=C)C(=O)N[C@@H](CC(N)=O)C(=O)N[C@@H](Cc1ccccc1)C(N)=O)C(C)C)[C@@H](C)CC [SP2026, LRRFSTMPFMF(AllyGly)NINNV(AllyGly)NF] (H-LRRFSTMPFMF[AllylGly]NINNV[AllylGly]NF-NH2; N-terminus assumed) | – | Yes | Complete | Yes | – | 8.23 µM | Yes | 96.61% | Yes | – | – | – | 11.43% | not affected | – | – | –
4 | CC[C@H](NC(=O)[C@H](Cc1ccccc1)NC(=O)[C@H](CCSC)NC(=O)[C@H](Cc1ccccc1)NC(=O)[C@@H]1CCCN1C(=O)[C@H](CCSC)NC(=O)[C@@H](NC(=O)[C@H](CO)NC(=O)[C@H](Cc1ccccc1)NC(=O)[C@H](CCCNC(=N)N)NC(=O)[C@H](CCCNC(=N)N)NC(=O)[C@@H](N)CC(C)C)[C@@H](C)O)C(=O)N[C@@H](CC(N)=O)C(=O)N[C@H](C(=O)N[C@@H](CC(N)=O)C(=O)N[C@@H](CC(N)=O)C(N)=O)[C@@H](C)CC [SP2028, LRRFSTMPFMFAbuNINN] (H-LRRFSTMPFMF[Abu]NINN-NH2; N-terminus assumed) | 48.87% | Yes | Complete | Yes | – | – | Yes | 96.8% | Yes | – | – | – | – | – | Inhibition of tube formation | – | –
5 | FTNINNVTN-NH2 [SP2031, FTNINNVTN] | 10.21% | Yes | Active | Yes | – | – | Yes | 85% | Yes | – | – | – | – | restored activity | – | > 50% | > 80
6 | LNRFSTMPF [SP2013, LNRFSTMPF] | Inactive | No | Inactive | No | – | > 100 µM | No | 0.3% | No | absence of activity | Inactive | absence of activity | – | – | – | – | –
7 | LRRFSTMP-NH2 [SP2008] | Inactive | No | Inactive | No | – | – | No | −0.1% | No | absence of activity | Inactive | absence of activity | – | – | – | – | –
8 | LRRFSTMPFMF [SP2004, LRRFSTMPFMF] | – | No | Inactive | No | – | > 100 µM | No | – | No | – | Inactive | – | – | inactive | – | – | –
9 | LRRFSTMPFMFANINNVANF-NH2 [SP2023] | – | Yes | Complete | Yes | – | – | Yes | 96.29% | Yes | – | – | – | 31.18% | – | – | – | –
10 | LRRFSTMPFMFININN-NH2 [SP2033, LRRFSTMPFMFININN] | 42.01% | Yes | Complete | Yes | – | – | Yes | 94% | Yes | – | – | – | – | potent activity in inhibiting proliferation | Inhibition of tube formation | – | –
